ChEMBL document CHEMBL1201862, “PubChem BioAssay data set” (2004)
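Method: 48-hour compound exposure of cells in 96-well plates, five concentrations, linear interpolation of endpoints. At the GI50, growth is halved.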 Activity calls are given as the source filed them. Rule as the data show it: active = GI50 up to about 1.1 µM and inactive = higher.

How the values were obtained:
Assay in all cases: NCI tumour cell line growth inhibition, 48 h
LOX IMVI = system: LOX IMVI
OVCAR-4 = system: OVCAR-4
DU-145 = system: DU-145
CAKI-1 = system: CAKI-1
RXF 393 = system: RXF 393
786-0 = system: 786-0
OVCAR-5 = system: OVCAR-5
MDA-N = system: MDA-N
OVCAR-3 = system: OVCAR-3
SK-OV-3 = system: SK-OV-3
COLO 205 = system: COLO 205
K562 = system: K562
SF-295 = system: SF-295
OVCAR-8 = system: OVCAR-8
NCI-H23 = system: NCI-H23
NCI-H226 = system: NCI-H226
HOP-62 = system: HOP-62
BT-549 = system: BT-549
HL-60 = system: HL-60
SNB-19 = system: SNB-19
Hs-578T = system: Hs-578T
A498 = system: A498
UO-31 = system: UO-31
A549 = system: A549
RPMI-8226 = system: RPMI-8226
SF-539 = system: SF-539
NCI-H522 = system: NCI-H522
UACC-62 = system: UACC-62
SW-620 = system: SW-620
ACHN = system: ACHN
MCF7 = system: MCF7
HCT-15 = system: HCT-15
MOLT-4 = system: MOLT-4
SK-MEL-5 = system: SK-MEL-5
SF-268 = system: SF-268
EKVX = system: EKVX
SN12C = system: SN12C
SR = system: SR
CCRF-CEM = system: CCRF-CEM
Malme-3M = system: Malme-3M
HCC 2998 = system: HCC 2998
NCI-H460 = system: NCI-H460
T47D = system: T47D
HOP-92 = system: HOP-92
TK-10 = system: TK-10
SK-MEL-28 = system: SK-MEL-28
SK-MEL-2 = system: SK-MEL-2
IGROV-1 = system: IGROV-1
KM12 = system: KM12
PC-3 = system: PC-3
U-251 = system: U-251
UACC-257 = system: UACC-257
NCI/ADR-RES = system: NCI/ADR-RES
M14 = system: M14
MDA-MB-435 = system: MDA-MB-435
MDA-MB-231 = system: MDA-MB-231
HT-29 = system: HT-29
HCT-116 = system: HCT-116

CCCCCCc1nn2c(-c3ccncc3)nnc2s1
GI50 (LOX IMVI): > 10 µM (inactive)
GI50 (OVCAR-4): > 10 µM (inactive)
GI50 (DU-145): > 10 µM (inactive)
GI50 (CAKI-1): > 10 µM (inactive)
GI50 (RXF 393): > 10 µM (inactive)
GI50 (786-0): > 10 µM (inactive)
GI50 (OVCAR-5): > 10 µM (inactive)
GI50 (MDA-N): > 10 µM (inactive)
GI50 (OVCAR-3): > 10 µM (inactive)
GI50 (SK-OV-3): > 10 µM (inactive)
GI50 (COLO 205): > 10 µM (inactive)
GI50 (K562): > 10 µM (inactive)
GI50 (SF-295): > 10 µM (inactive)
GI50 (OVCAR-8): > 10 µM (inactive)
GI50 (NCI-H23): > 10 µM (inactive)
GI50 (NCI-H226): > 10 µM (inactive)
GI50 (HOP-62): > 10 µM (inactive)
GI50 (BT-549): > 10 µM (inactive)
GI50 (HL-60): > 10 µM (inactive)
GI50 (SNB-19): > 10 µM (inactive)
GI50 (Hs-578T): > 10 µM (inactive)
GI50 (A498): > 10 µM (inactive)
GI50 (UO-31): 1.42 µM (inactive)
GI50 (A549): > 10 µM (inactive)
GI50 (RPMI-8226): > 10 µM (inactive)
GI50 (SF-539): > 10 µM (inactive)
GI50 (NCI-H522): > 10 µM (inactive)
GI50 (UACC-62): > 10 µM (inactive)
GI50 (SW-620): > 10 µM (inactive)
GI50 (ACHN): > 10 µM (inactive)
GI50 (MCF7): > 10 µM (inactive)
GI50 (HCT-15): > 10 µM
GI50 (MOLT-4): > 10 µM (inactive)
GI50 (SK-MEL-5): > 10 µM (inactive)
GI50 (SF-268): > 10 µM (inactive)
GI50 (EKVX): > 10 µM (inactive)
GI50 (SN12C): > 10 µM (inactive)
GI50 (SR): > 10 µM (inactive)
GI50 (CCRF-CEM): > 10 µM (inactive)
GI50 (Malme-3M): > 10 µM (inactive)
GI50 (HCC 2998): > 10 µM (inactive)
GI50 (NCI-H460): > 10 µM (inactive)
GI50 (T47D): > 10 µM (inactive)
GI50 (HOP-92): 8.65 µM (inactive)
GI50 (TK-10): > 10 µM (inactive)
GI50 (SK-MEL-28): > 10 µM (inactive)
GI50 (SK-MEL-2): > 10 µM (inactive)
GI50 (IGROV-1): > 10 µM (inactive)
GI50 (KM12): > 10 µM (inactive)
GI50 (PC-3): > 10 µM (inactive)
GI50 (U-251): > 10 µM (inactive)
GI50 (UACC-257): > 10 µM (inactive)
GI50 (NCI/ADR-RES): > 10 µM (inactive)
GI50 (M14): > 10 µM (inactive)
GI50 (MDA-MB-435): > 10 µM (inactive)
GI50 (MDA-MB-231): > 10 µM (inactive)
GI50 (HT-29): > 10 µM (inactive)
GI50 (HCT-116): > 10 µM (inactive)

CN1CC(S(=O)(=O)c2ccccc2)CC(S(=O)(=O)c2ccccc2)C1c1ccccc1 (stereo not drawn)
GI50 (LOX IMVI): 11.7 µM (inactive)
GI50 (OVCAR-4): 12 µM (inactive)
GI50 (DU-145): 18 µM (inactive)
GI50 (CAKI-1): 10.8 µM (inactive)
GI50 (RXF 393): 14.9 µM (inactive)
GI50 (786-0): 12.2 µM (inactive)
GI50 (OVCAR-5): 15.2 µM (inactive)
GI50 (MDA-N): 11.6 µM (inactive)
GI50 (OVCAR-3): 12.3 µM (inactive)
GI50 (SK-OV-3): 39.1 µM (inactive)
GI50 (COLO 205): 13.6 µM (inactive)
GI50 (K562): 15 µM (inactive)
GI50 (SF-295): 29.4 µM (inactive)
GI50 (OVCAR-8): 28.7 µM (inactive)
GI50 (NCI-H226): 21.2 µM (inactive)
GI50 (HOP-62): 20 µM (inactive)
GI50 (BT-549): 11.7 µM (inactive)
GI50 (HL-60): 8.81 µM (inactive)
GI50 (SNB-19): 23.4 µM (inactive)
GI50 (Hs-578T): 20.9 µM (inactive)
GI50 (A498): 16.2 µM (inactive)
GI50 (UO-31): 15.3 µM (inactive)
GI50 (A549): 32.7 µM (inactive)
GI50 (SF-539): 4.86 µM (inactive)
GI50 (NCI-H522): 2.9 µM (inactive)
GI50 (UACC-62): 14.3 µM (inactive)
GI50 (SW-620): 8.3 µM (inactive)
GI50 (ACHN): 12.5 µM (inactive)
GI50 (MCF7): 12.4 µM (inactive)
GI50 (HCT-15): 12.4 µM
GI50 (MOLT-4): 16.8 µM (inactive)
GI50 (SK-MEL-5): 14.6 µM (inactive)
GI50 (SF-268): 16.2 µM (inactive)
GI50 (EKVX): 14.3 µM (inactive)
GI50 (SN12C): 10.4 µM (inactive)
GI50 (SR): 6.22 µM (inactive)
GI50 (Malme-3M): 13.6 µM (inactive)
GI50 (HCC 2998): 15.9 µM (inactive)
GI50 (NCI-H460): 16.2 µM (inactive)
GI50 (T47D): 18.2 µM (inactive)
GI50 (HOP-92): 18.2 µM (inactive)
GI50 (TK-10): 14.2 µM (inactive)
GI50 (SK-MEL-28): 15.9 µM (inactive)
GI50 (SK-MEL-2): 4.47 µM (inactive)
GI50 (IGROV-1): 25.9 µM (inactive)
GI50 (KM12): 13.2 µM (inactive)
GI50 (PC-3): 12.1 µM (inactive)
GI50 (U-251): 12.1 µM (inactive)
GI50 (UACC-257): 15 µM (inactive)
GI50 (NCI/ADR-RES): 23.3 µM (inactive)
GI50 (M14): 16.8 µM (inactive)
GI50 (MDA-MB-435): 10.9 µM (inactive)
GI50 (MDA-MB-231): 15.3 µM (inactive)
GI50 (HT-29): 14.8 µM (inactive)
GI50 (HCT-116): 10.4 µM (inactive)
